Some test systems named below: DLD-1; DMS-114; DMS-273; HOP-18; LXFL 529; M19-MEL; RXF 631; KM-20L2; XF498.
Test in all cases: DTP human tumour cell line panel, 48 h

SMILES strings stand for the structures.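 Dose response: 5 concentrations. Exposure: 48 h. Format: 96-well plates. Endpoint: linear interpolation; highest concentration if not reached. GI50 marks 50% less growth.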 Active and inactive are the calls of the source. Cut-off read from the data, not from the text of the source: active = GI50 up to about 1.1 µM and inactive = higher. A value given as a limit tells only on which side of the number the result lay.

For `CC1(CO)OC(n2cnc3c(N)ncnc32)C(O)C1O` (stereo not drawn), the GI50 (commonly the concentration giving 50% growth inhibition) in the assay on DLD-1 is > 100 µM (inactive); in the assay on DMS-114, > 100 µM (inactive); with DMS-273, > 10 µM (inactive); in the assay on HOP-18 it was > 100 µM (inactive); with LXFL 529 it was > 100 µM (inactive); with M19-MEL, > 100 µM (inactive).

Consider `Clc1cc(Cl)cc(C2SCc3nc4ccccc4n32)c1` (stereo not drawn), for which the GI50 is > 10 µM (inactive) in the assay with DLD-1; 13.6 µM (inactive) in the assay with DMS-114; 7.28 µM (inactive) with DMS-273; 28.4 µM (inactive) in the assay on HOP-18; 14.4 µM (inactive) with LXFL 529; 14.2 µM (inactive) with RXF 631.

For `c1ccc(C2N3CCCCC3[C@@H]3c4[nH]c5ccccc5c4CCN23)cc1` (stereo partly drawn), the GI50 is 54.1 µM (inactive) in the assay with DLD-1; 38.7 µM (inactive) in the assay with DMS-114; 50.7 µM (inactive) with DMS-273; > 100 µM (inactive) in the assay on HOP-18; > 100 µM (inactive) with KM-20L2; 85.3 µM (inactive) with LXFL 529. In addition, the GI50 was 58.2 µM (inactive) in the assay on M19-MEL and > 100 µM (inactive) in the assay on XF498.

For the molecule `Cc1c2cc[n+](C)cc2c(C)c2c1[nH]c1ccccc12`, the GI50 in the assay with DLD-1 is 1.65 µM (inactive); in the assay with DMS-114, 0.315 µM (active); in the assay on DMS-273, 1.64 µM (inactive); in the assay on HOP-18, 2.91 µM (inactive); in the assay with M19-MEL, 0.718 µM (active); in the assay on XF498, 0.608 µM (active).

For `CC(C)[C@H]1CO[C@@H]2O[C@H](C)CC(=O)N21`, the GI50 in the assay with DLD-1, in the assay with DMS-114, in the assay on HOP-18, with KM-20L2, in the assay with LXFL 529 and in the assay on M19-MEL was > 100 µM (inactive) throughout.

As for `O=C(CCCN1CCC(C(O)c2ccc(F)cc2)CC1)c1ccc(F)cc1` (stereo not drawn), the GI50 was 51.8 µM (inactive) in the assay on DLD-1; 49.7 µM (inactive) in the assay with DMS-114; 63.5 µM (inactive) with DMS-273; 66.8 µM (inactive) with HOP-18; 41.7 µM (inactive) in the assay on KM-20L2; 59.6 µM (inactive) in the assay on M19-MEL. Moreover, the GI50 in the assay with XF498 was 4.46 µM (inactive).

Turning to `CCCCCCCCCCC(C)CCCCCCC(=O)OCC(COP(=O)([O-])OCC[N+](C)(C)C)OC(=O)CCCCCCC(C)CCCCCCCCCC` (stereo not drawn), the GI50 in the assay with DLD-1, in the assay with DMS-114, in the assay with DMS-273, in the assay on HOP-18, in the assay on KM-20L2 and in the assay with LXFL 529 was > 100 µM (inactive) each time. In addition, the GI50 in the assay on M19-MEL and with RXF 631 was > 100 µM (inactive) in each case.

As to `N#C/C(=C\c1ccc2ccccc2c1)c1ccccc1`, the GI50 is 25.7 µM (inactive) in the assay on DLD-1; 14 µM (inactive) in the assay on DMS-273; 22.1 µM (inactive) in the assay on HOP-18; 15.6 µM (inactive) in the assay on KM-20L2; 29.4 µM (inactive) with LXFL 529; 26.6 µM (inactive) in the assay with M19-MEL. Further, the GI50 in the assay with RXF 631 is 30.5 µM (inactive).

For the molecule `O=C(NC1CCCCC1)NC12CC3CC(CC(F)(C3)C1)C2`, the GI50 in the assay on DLD-1, in the assay with DMS-114, in the assay on DMS-273, in the assay on KM-20L2, with LXFL 529 and with M19-MEL was > 100 µM (inactive) in each case. Further, the GI50 with RXF 631 and in the assay with XF498 was > 100 µM (inactive) in each case.

Consider `CCN(CC)CCn1nc2c3c(c(NCCN)ccc31)Sc1cc(O)ccc1-2`, for which the GI50 in the assay with DLD-1 was 1.25 µM (inactive); in the assay on DMS-114 it was 0.31 µM (active); with DMS-273 it was 0.417 µM (active); in the assay on HOP-18, 1.62 µM (inactive); with LXFL 529 it was 0.178 µM (active); in the assay with M19-MEL, 0.347 µM (active). Besides, the GI50 in the assay with XF498 was 0.128 µM (active).

On to `CCCCCCC1NN(C(C)=O)C(CCCCCC)NN1C(C)=O` (stereo not drawn), for which the GI50 is 52.1 µM (inactive) with DLD-1; > 100 µM (inactive) in the assay with DMS-273; > 100 µM (inactive) with HOP-18; > 100 µM (inactive) with KM-20L2; > 100 µM (inactive) in the assay with LXFL 529; > 100 µM (inactive) in the assay on M19-MEL.

As for `CO/C(=N\N=Cc1ccccc1)c1ccncc1`, the GI50 in the assay on DLD-1, in the assay on DMS-114, in the assay with DMS-273, in the assay with KM-20L2, in the assay on LXFL 529 and in the assay with M19-MEL was > 100 µM (inactive) each time. The GI50 with XF498 was 47.5 µM (inactive).

Regarding `Cn1c(=O)c2nc3sc4c(n3c2n(C)c1=O)C(=O)c1ccccc1C4=O`, the GI50 with DLD-1 is > 100 µM (inactive); with DMS-114, > 100 µM (inactive); in the assay with DMS-273 it was > 100 µM (inactive); in the assay on HOP-18, 0.433 µM (active); with KM-20L2, > 100 µM (inactive); in the assay with LXFL 529 it was > 100 µM (inactive). Also, the values for the GI50 with M19-MEL, with RXF 631 and in the assay with XF498 were > 86.7 µM (inactive), > 100 µM (inactive) and > 100 µM (inactive), respectively.

In the case of `COc1ccc(C(=O)c2c3cc(OC)c(OC)c(OC)c3cc[n+]2C)cc1`, the GI50 in the assay on DLD-1 is 17.1 µM (inactive); in the assay with DMS-114 it was 23.7 µM (inactive); in the assay on HOP-18, 20.6 µM (inactive); in the assay on KM-20L2 it was 28.3 µM (inactive); in the assay on LXFL 529, 24.9 µM (inactive); in the assay on M19-MEL it was 24.1 µM (inactive). Further, the results for the GI50 in the assay with RXF 631 and in the assay on XF498 were 37.4 µM (inactive) and 15 µM (inactive), respectively.

As to `Clc1ccc(OC2CCO2)cc1Cl` (stereo not drawn), the GI50 with DLD-1 was 85.9 µM (inactive); with DMS-114 it was 34.4 µM (inactive); with DMS-273, 63.1 µM (inactive); in the assay with HOP-18, > 100 µM (inactive); in the assay on KM-20L2, 76.4 µM (inactive); in the assay with LXFL 529 it was 70.5 µM (inactive). Also, the values for the GI50 in the assay on M19-MEL and with RXF 631 were > 100 µM (inactive) and 25.1 µM (inactive), respectively.

`Cc1ccc(S(=O)(=O)OCCOCCOCCOCCOCCOS(=O)(=O)c2ccc(C)cc2)cc1`: the GI50 in the assay on DLD-1 is 60.8 µM (inactive); in the assay on DMS-273 it was 28.6 µM (inactive); in the assay on HOP-18 it was 65.3 µM (inactive); in the assay with KM-20L2 it was 59.2 µM (inactive); with LXFL 529 it was 33.7 µM (inactive); in the assay on M19-MEL it was 30.3 µM (inactive). Besides, the GI50 in the assay with RXF 631 is 27.1 µM (inactive).

Turning to `O=c1[nH]cnc2c(COCCCO)c[nH]c12`, the GI50 in the assay with DLD-1, in the assay on DMS-114, in the assay with HOP-18, in the assay with KM-20L2, with LXFL 529 and in the assay on M19-MEL was > 100 µM (inactive) throughout.

On to `Cc1c2c(cc3c1[nH]c1ccccc13)C(c1ccc(Cl)cc1)=NCC2`, for which the GI50 is 0.452 µM (active) in the assay on DLD-1; 0.347 µM (active) in the assay on DMS-114; 0.237 µM (active) with DMS-273; 3.99 µM (inactive) in the assay with HOP-18; 0.301 µM (active) in the assay on KM-20L2; 0.726 µM (active) in the assay on M19-MEL. In the assay with XF498, the GI50 is 0.0973 µM (active).

As for `N/C(=N\O)N/N=C/c1cc2c(cc1Cl)OCO2`, the GI50 in the assay on DLD-1 was 42.8 µM (inactive); with DMS-114, > 100 µM (inactive); with DMS-273, 18.6 µM (inactive); in the assay with HOP-18, 56.2 µM (inactive); with KM-20L2 it was 35.8 µM (inactive); in the assay on M19-MEL it was > 56.9 µM (inactive).

The values are drawn from ChEMBL document CHEMBL1201862, “PubChem BioAssay data set” (2004).
